How the values were obtained:
human 20S proteasome β1 = target: T1, human 20S proteasome β1 (Homo sapiens, UniProt P28072); test: 20S Proteasome Assay, β1 selective substrate (Z-LLE-AMC); type: biochemical; conditions: typically tested as mannitol esters; for inhibition at 0.41 µM: concentration 0.41 μM; for inhibition at 0.33 µM: concentration 0.33 μM
T1 construct: purchased Boston Biochem
Experimental: (§1) β1 Selective substrate: To 1 μL of test compound dissolved in DMSO in a 384-well microtiter plate is added 25 μL of assay buffer at 37° C. containing human PA28 activator (Boston Biochem, 12 nM final) with Z-LLE-AMC ([…]1 selective substrate) (15 μM final), followed by 25 μL of assay buffer at 37° C. containing human 20S proteasome (Boston Biochem, 0.25 nM final). Assay buffer is composed of 20 mM HEPES, 0.5 mM EDTA and 0.01% BSA, pH7.4. The reaction is followed on a BMG Galaxy plate reader (37° C., excitation 380 nm, emission 460 nm, gain 20). Percent inhibition is calculated relative to 0% inhibition (DMSO) and 100% inhibition (10 μM bortezomib) controls. Compound of formula (I) are typically tested in this assay as their mannitol esters (prepared as described above). The mannitol esters are hydrolyzed to the free active boronic acid species.

human 20S proteasome β5 = target: T2, human 20S proteasome β5 (Homo sapiens, UniProt P28074); test: 20S Proteasome Assay, β5 selective substrate (Ac-WLA-AMC); type: biochemical; conditions: concentration 0.41 μM; typically tested as mannitol esters
T2 construct: purchased Boston Biochem
Experimental: as §1, with “β5” for “β1”, “384-well black” for “384-well”, “Ac-WLA-AMC (β5” for “Z-LLE-AMC ([…]1”

Structure (SMILES) | inhibition at 0.41 µM (human 20S proteasome β1) | inhibition at 0.41 µM (human 20S proteasome β5) | inhibition at 0.33 µM (human 20S proteasome β1)
O=C(N[C@@H](CC1CC1)B(O)O)[C@H](Cc1ccccc1)NS(=O)(=O)c1ccc(Oc2ccccn2)cc1 [Compound 1, ((1R)-2-cyclopropyl-1-{[(2S)-3-phenyl-2-({[4-(pyridin-2-yloxy)phenyl]sulfonyl}amino)propanoyl]amino}ethyl)boronic acid] | 67.2% | 91.8% | –
O=C(N[C@@H](CC1CC1)B(O)O)[C@H](Cc1ccccc1)NS(=O)(=O)c1ccc(Oc2cccnc2)cc1 [Compound 2, ((1R)-2-cyclopropyl-1-{[(2S)-3-phenyl-2-({[4-(pyridin-3-yloxy)phenyl]sulfonyl}amino)propanoyl]amino}ethyl)boronic acid] | 70.7% | 89% | –
O=C(N[C@@H](CC1CC1)B(O)O)[C@H](Cc1ccccc1)NS(=O)(=O)c1ccc2ncsc2c1 [Compound 4, [(1R)-1-({(2S)-2-[(1,3-benzothiazol-6-ylsulfonyl)amino]-3-phenylpropanoyl}amino)-2-cyclopropylethyl]boronic acid] | 73.2% | 89.8% | –
O=C(N[C@@H](CC1CC1)B(O)O)[C@H](Cc1ccccc1)NS(=O)(=O)c1ccc(-c2cnco2)cc1 [Compound 6, ((1R)-2-cyclopropyl-1-{[(2S)-2-({[4-(1,3-oxazol-5-yl)phenyl]sulfonyl}amino)-3-phenylpropanoyl]amino}ethyl)boronic acid] | 65.4% | 92.9% | –
O=C(N[C@@H](CC1CC1)B(O)O)[C@H](Cc1ccccc1)NS(=O)(=O)c1cccc(Oc2ccc(C(F)(F)F)cn2)c1 [Compound 7, {(1R)-2-cyclopropyl-1-[((2S)-3-phenyl-2-{[(3-{[5-(trifluoromethyl)pyridin-2-yl]oxy}phenyl)sulfonyl]amino}propanoyl)amino]ethyl}boronic acid] | 81.3% | 93% | –
O=C(N[C@@H](Cc1ccccc1)C(=O)N[C@@H](CC1CC1)B(O)O)c1cc(Cl)ccc1Cl [Compound 9, [(1R)-2-cyclopropyl-1-({(2S)-2-[(2,5-dichlorobenzoyl)amino]-3-phenylpropanoyl}amino)ethyl]boronic acid] | – | 93.3% | 91.1%
O=C(N[C@@H](Cc1ccccc1)C(=O)N[C@@H](CC1CC1)B(O)O)c1cnccn1 [Compound 12, [(1R)-2-cyclopropyl-1-({(2S)-3-phenyl-2-[(pyrazin-2-ylcarbonyl)amino]propanoyl}amino)ethyl]boronic acid] | – | 81.9% | 93%
CN1C(=O)Cc2cc(S(=O)(=O)N[C@@H](Cc3ccccc3)C(=O)N[C@@H](CC3CC3)B(O)O)ccc21 [Compound 13, {(1R)-2-cyclopropyl-1-[((2S)-2-{[(1-methyl-2-oxo-2,3-dihydro-1H-indol-5-yl)sulfonyl]amino}-3-phenylpropanoyl)amino]ethyl}boronic acid] | 66.7% | 83.7% | –
O=C(N[C@@H](CC1CC1)B(O)O)[C@H](Cc1ccccc1)NS(=O)(=O)c1ccc(Oc2ccncc2)cc1 [Compound 14, ((1R)-2-cyclopropyl-1-{[(2S)-3-phenyl-2-({[4-(pyridin-4-yloxy)phenyl]sulfonyl}amino)propanoyl]amino}ethyl)boronic acid] | 75.7% | 93.1% | –
O=C1COc2cc(S(=O)(=O)N[C@@H](Cc3ccccc3)C(=O)N[C@@H](CC3CC3)B(O)O)c(Cl)cc2N1 [Compound 15, {(1R)-1-[((2S)-2-{[(6-chloro-3-oxo-3,4-dihydro-2H-1,4-benzoxazin-7-yl)sulfonyl]amino}-3-phenylpropanoyl)amino]-2-cyclopropylethyl}boronic acid] | 77.1% | 90.3% | –
O=C(c1cccc(S(=O)(=O)N[C@@H](Cc2ccccc2)C(=O)N[C@@H](CC2CC2)B(O)O)c1)c1ccccn1 [Compound 16, ((1R)-2-cyclopropyl-1-{[(2S)-3-phenyl-2-({[3-(pyridin-2-ylcarbonyl)phenyl]sulfonyl}amino)propanoyl]amino}ethyl)boronic acid] | 82.7% | 90.8% | –
O=C(N[C@@H](CC1CC1)B(O)O)[C@H](Cc1ccccc1)NS(=O)(=O)c1cccc2cnccc12 [Compound 17, [(1R)-2-cyclopropyl-1-({(2S)-2-[(isoquinolin-5-ylsulfonyl)amino]-3-phenylpropanoyl}amino)ethyl]boronic acid] | 71.9% | 89.7% | –

From patent US9023832B2, “Derivatives of 1-amino-2-cyclopropylethylboronic acid” (Millennium Pharmaceuticals, Inc., priority 2010, dated 2015)
